Experimental data as given in patent US11987404B2, “Method for filling containers with a powder” (NTC S.R.L., priority 2019, dated 2024).

Key:
Type in all cases: physicochemical
[1] = Accelerated stability 40° C./75% RH in heat-sealed envelope; conditions: accelerated stability conditions
Experimental: (§1) The stability of the mannitol in the form of powder object of the present invention was tested, housed inside a heat-sealed envelope in compostable material. 50 grams of said powder were stored for 6 months at 40° C./75% RH (Test 1) and for 6 months at 25° C./60% RH (Test 2). Checks were made of the parameters indicated in Tables 8 and 9 following the times T0-T6 identified as: T0=moment of insertion of the air-conditioned environment, T1=after one month from the moment T0, T2=after two months from the moment T0, T3=after three months from the time T0, T4=after four months from the time T0, T5=after five months from the time T0, T6=after six months from the time T0.

[2] = Bulk density (Ph. Eur. 2.2.42)
Experimental: As regards the bulk density outlined above, in particular the poured bulk density, such parameter is measured according to the European Pharmacopoeia reference standard (Ph. EUR.), current edition 2.2.42, in force at the priority date of this patent application. In the context of the present invention, the expression “bulk” implies that the powder density value is calculated in a manner formally analogous to an absolute density (such as for a solid body or for a liquid). However, since a powder has empty inter-particle spaces, the total volume occupied by the powder (i.e. its outer bulk), thus including the inter-particle spaces between the various particles, should be taken into account when evaluating bulk density. More precisely, according to the aforementioned standard, a 100 ml class A graduated flask is filled and brought to volume with the powder particles, after which the bulk density is calculated as the ratio between the weight of the powder inside the flask and the volume (100 ml) occupied by that weight of the powder particles. Mannitol powder is a poorly flowing powder, which has a certain tendency, just like all fine powders, to agglomerate under pressure. […]

[3] = Long term stability 25° C./60% RH in heat-sealed envelope; conditions: long-term stability in the climatic area II
Experimental: as §1

[4] = Dissolution study of mannitol powder in non-carbonated commercial waters; conditions: 150 g of mannitol in 900 ml of water, weakly acidic or neutral pH
Text: The solubility of the mannitol powder was then studied in the following three types of non-carbonated commercial waters: • Sangemini: PH at source 6.2; • Antica Fonte Boario: PH at source 7.0; • Panna Toscana: pH at source 8.0.

measured parameters over the test [1]: remained stable
transient density ([2]; after passing through 3 mm mesh of the sieve shaker, measured in the laboratory): about 0.73 g/ml
poured bulk density ([2]; coherent mass before the drum centrifugal sieve shaker): about 0.60 g/ml
measured parameters over the test [3]: remained stable
complete dissolution time [4]: more than 6 minutes
Compound: OC[C@@H](O)[C@@H](O)[C@H](O)[C@H](O)CO [mannitol, Mannitol]
